One data set relates to physostigmine. The data set is described as follows: Physostigmine antagonism. The class given is in vivo, male. Particulars: Mus musculus, ip, 0.5 h; mice, i.p., physostigmine 2 mg/kg i.p. thirty minutes after test substance; survivors after 60 minutes; read-out: Physostigmine antag. (ED50). The method, then: Physostigmine antagonism (ED50 mg/kg i.p.)
Scopolamine bromide 0.04 mg/ml or 0.1 mg/ml.
Physostigmine salicylate 0.2 mg/ml.
Five mice are used for each dose level. One group, serving as positive control, is injected with scopolamine 0.4 mg/kg i.p. Thirty minutes after i.p. administration of test substance (or scopolamine), physostigmine 2 mg/kg, is injected i.p. This dose of physostigmine induces tremor with salivation, clonic convulsions, coma and death. After 60 minutes the number of survivors are counted.
The results are recorded in fractions: 0/5, 1/5, 2/5, 3/5, 4/5 and 5/5 where 0, 1, 2, 3, 4 and 5 inducate the number of animals in which the test compound has prevented the occurrence of death.

Data set [1] can be described thus: Determination of LD50 (acute toxicity, i.p.). It counts as in vivo, Mice, male. The method, then:
Determination of LD50 (mg/kg i.p.)
Mice, male, weighing from 18-25 g, fasted from 4 p.m. the day before test day.
Four treated groups and one control group, each of 4 mice, are used.
The test substance is suspended in methyl cellulose 0.5% and injected intraperitoneally. The animals are placed in Macrolon cages type II. […] Furthermore the results are recorded according to the punching instructions as fractions: 0/4, 1/4, 2/4, 3/4 and 4/4 where 0, 1, 2, 3 and 4 indicate the number of deaths after the dose in question.

Data set [2] is described as follows: Administration to human beings. The conditions noted are these: in vivo. The text has this:
Lu 14-089 as well as the non-toxic acid addition salts thereof may be administered to animals such as dogs, cats, horses sheeps or the like, including human beings, both orally and parenterally, and may be used for example in the form of tablets capsules, powders, syrups, suppositories, or in the form of the usual sterile solutions for injection.

Data set [3] can be described thus: Catalepsy wire mesh, rat, max. The class given is in vivo, male. Particulars: rats. The method, then:
Catalepsy wire mesh, rat, max. (ED50 mg/kg s.c.)
A vertical wire netting (50 cm×49 cm). The meshes (openings) of the netting are square (1 cm×1 cm). The wire diameter is 2 mm.
The animals are labeled and used in groups of five. The test substance is injected subcutaneously (s.c.) (5 ml/kg) at 4 dose levels selected from the fixed dose scale.
The animals are placed in the middle of the vertical wire netting 60, 120, 180, 240, 300 and 360 minutes after injection of the test compound. The animals are considered cetaleptic when they remain immobile during a period of 15 seconds. This cataleptic reaction is designated +. If the rats are "atonic" and passively slides down the wire mesh they are considered not cataleptic. If the animals climb up and down the wire mesh they are nor cataleptic. In both situations the designation - is used.

Another data set deals with apomorphine. The data set is described as follows: Apomorphine vomit. It counts as in vivo, Adult Beagle dogs. Particulars: Canis lupus familiaris, sc, 4 h; Beagle dogs, s.c., four hours before apomorphine 25 μg/kg i.v.; calculated ED50 approximate; read-out: Apomorph. Vomit (ED50). As to the method:
Adult Beagle dogs of either sex, housed individually in kennels or in cages.
2-4 dogs are used per dose level.
The test compound is injected subcutanelusly in the back of the neck four hours before apomorphine, which is given intravenously in a dose of 25 μg/kg (volume 0.1 ml/kg).
The results are given as fractions, i.e. 0/2, 1/2 or 2/2, stating the number of dogs protected against vomiting over to the number of dogs. On account of the small number of animals the calculated ED50 should be considered approximate.

Another data set concerns amphetamine. The data set is described as follows: Amphetamine antagonism. It counts as in vivo, Rats, male. Particulars: Rattus norvegicus, ip, 2 h; rats, i.p., amphetamine sulphate 13.6 mg/kg i.v. two hours later; read-out: Amphetamine antag. (ED50). The method, then: Amphetamine antagonism (ED50 mg/kg i.p.)
Perspex observation cages without bottom and lid, consisting of 5 sections each measuring 12×25×30 cm.
The test substance is given i.p. in a reasonable dose based on the determined LD50. Two hours later an intravenous injection of amphetamine sulphate 13.6 mg/kg (~10 mg/kg amphetamine base) is given, after which the rats are placed individually in the cages. The cages are placed on white corrugated paper. Five rats are used for each dose level. Observations are made after 55 minutes and 65 minutes--observation time: 1 minute. The animals are observed for stereotypy (movements of the head, compulsive gnawing). […] If the compound has full antagonistic effect another group of rats is used at a lower dose. […] The result is stated as fractions: 0/5, 1/5, 2/5, 3/5, 4/5 and 5/5, where 0, 1, 2, 3, 4 and 5 indicate the number of rats which have not shown stereotypy at the dose in question. The results are calculated as ED50 in mg/kg.

The test system of a further data set is methylphenidate. The data set is described as follows: Methylphenidate antagonism. The class given is in vivo, male. Particulars: Mus musculus, ip, mice, i.p. The method, then: Methylphenidate antagonism (ED50 mg/kg i.p.)
Perspex observation cages without bottom and lid, consisting of 5 sections each measuring 12×25×30 cm. White corrugated paper. Mice, male, 18-25 g.
3×2 mice are used for each dose level. Two or 24 hours after injection of test substance, methylphenidate, 60 mg/kg, is injected s.c.
After administration of methylphenidate the mice are placed in the observation cages, 2 in each cage, where they remain for exactly 1 hour. The cages are placed on corrugated paper, the corrugations facing upwards. It is examined whether the mice have been biting the corrugated paper or not. […] If one or more of the control pairs have not been biting, the test has to be repeated on a new set of mice.
The result is stated in fractions: 0/3, 1/3, 2/3 and 3/3 where 0, 1, 2 and 3 are the number of pairs which have not been biting on receipt of the dose in question.

Another data set has as its target Muscarinic. Description: Muscarinic affinity binding (3H-PrBCM, whole brain P2 fraction). More on the design: species or system Rats. The conditions noted are these: displacement of specific 3H-PrBCM binding by 50%; rat brain, pH 7.4, 30° C.; read-out: Muscarine affinity (IC50). As to the method: Muscarinic affinity binding
Sodium thiosulphate 10 mM (2.48 g/1000 ml) ^3 H-PrBCM (N-2'-chloroethyl-N-[2", 3"-^3 H2 ] propyl-2-aminoethylbenzilate,spec. act. ~28 Ci/mM).
A rat is killed by a blow on the head and exsanguinated. The whole brain is removed and homogenized in 10 volumes of ice cold 0.32 M sucrose with a hand homogenizer. The homogenate is centrifuged at 600 g for 10 minutes (4° C.) and the pellet discarded. The supernatant is then centrifuged at 25000 g for 55 minutes (4° C.). The pellet fraction (P2) is resuspended in the same volume of 0.32 M sucrose as previously used and stored on ice.
The aziridinium ion of ^3 H-propylbenzilyllcholine mustard (^3 H-PrBCM) is prepared by cyclization at a concentration of 130 nM in 15 mM Na-phosphate buffer (pH 7.4) for 50 minutes at 20° C. The reaction is terminated by addition of 100 volumes of ice cold buffer.
The incubation is continued for 15 minutes and stopped by addition of 20 ml 100 mM phosphate buffer containing 10 mM sodium thiosulphate. The samples are filtered through Whatman GF/C glass fiber filters and washed with 30 ml ice cold 100 mM phosphate buffer. The filters with synaptosomes are transferred to scintillation vials and the radio-activity measured by liquid scintillation counting after addition of 10 ml Instal-Gel (Packard Inst.). All experiments are performed in triplicate.
Specific ^3 H-PrBCM binding is defined as the total binding minus the binding in the presence of 20 μM atropine.

The nature of data set [4]: Neuroleptic and pharmacological profile evaluated by standard test methods (overall statements). It counts as in vivo. The text has this:
The pharmacological testing of 2-methylthio-6-fluoro-9-(1-methyl-4-piperidylidene)-thioxanthene, in the following called Lu 14-089 for short, and its non-toxic acid addition salts consisted of standard and reliable tests.

pIC50: −log10 of the molar value. Where two headings read alike, the source gives them in different places.

On to `CSc1ccc2c(c1)C(=C1CCN(C)CC1)c1ccc(F)cc1S2` [Lu 14-089, 2-methylthio-6-fluoro-9-(1-methyl-4-piperidylidene)-thioxanthene], for which the ED50 in the data set with physostigmine was 7.2 mg/kg; in data set [3] (rat, in vivo, sc, wire mesh, maximum effect within first 6 hours), 6.3 mg/kg; with apomorphine, 0.014 mg/kg; in the data set on amphetamine it was 0.74 mg/kg; with methylphenidate (methylphenidate 60 mg/kg s.c. 2 h after test substance, read-out: Methylphenidate antag. 2h (ED50)) it was 0.1 mg/kg; in the data set with methylphenidate (methylphenidate 60 mg/kg s.c. 24 h after test substance, read-out: Methylphenidate antag. 24h (ED50)) it was 14 mg/kg. Also, the “acute toxicity, in words” value in data set [1] (compared with Lu 14-089 or related thioxanthene derivatives) is listed as “low acute toxicity compared with related thioxanthene derivatives”. In [1] (mouse, in vivo, ip, mice, i.p., deaths after 24 hours), this molecule showed a 50% lethal dose (LD50) at 24 h above 320 mg/kg. Further, in data set [2], the “Results upon administration to human beings” value was “very gratifying”. In addition, the “Ratio Catalep./Amphetam. antag.” value in data set [3] (catalepsy ED50 (s.c.) / amphetamine antagonism ED50 (i.p.)) is on record as 8.5. The negative-log IC50 (pIC50) at Muscarinic is 7.85. Moreover, in data set [4] (compound and its non-toxic acid addition salts), the “neuroleptic effects, in words” value is “strong and relatively longlasting neuroleptic effects”. For the same molecule, in data set [4] (in vivo), the “anticholinergic effects, in words” value was “strong anticholinergic effects”. Further, the “extrapyramidal side effects, in words” value in data set [4] (pharmacological profile, standard test methods) is listed as “low extrapyrimidal side effects”.

Values taken from patent US4235916A, “2-Methylthio-6-fluoro-9-(1-methyl-4-piperidylidene)-thioxanthene and salts thereof, neuroleptic compositions and method of use” (Kefalas A/S, priority 1977, dated 1980).
